Test results taken from US8785457B2 (Cellzome Limited, priority 2009, dated 2014).

Tested on: cytokine levels (TNFα, IL-2, IFNγ and IL-4)
Assay: Anti-CD3 induced cytokine release in the mouse
Format: in vivo
Settings: 100 mg/kg p.o. 30 minutes before anti-CD3, blood 90 minutes after anti-CD3, compared to control group 2
Description: In this mouse model, T cells and NK cells were activated in situ by the intraperitoneal (i.p.) injection of an anti-CD3 antibody into mice that had been pre-treated for 30 minutes with certain compounds of the invention (100 mg/kg po administration). Blood samples were collected 90 minutes after anti-CD3 injection. Plasma samples were prepared and the cytokine levels (Tumor Necrosis factor alpha (TNFα), Interleukin-2 (IL-2), Interferon-gamma (IFNγ) and Interleukin-4 (IL-4)) were measured using a Cytometric Bead Array method.
A single dose of test compound was administered p.o. 30 minutes before anti-CD3 injection. 90 minutes after anti-CD3 injection blood samples were collected for cytokine analysis (approximately 400 μl whole blood anti-coagulated with Na-heparin) and stored frozen until use.
The cytokine measurement was done using the mouse Cytometric Bead Array (CBA) Th1/Th2 kit (BD Biosciences, San Diego, Calif., USA; catalogue number 551287) according to the manufacturer's instruction with the following modifications: all reagents were downscaled by a factor of 2 and the mixture of plasma, beads and detection reagents was done in 96-U-bottom plates. Standards and samples were acquired on a FACSCalibur® instrument (Becton Dickinson) using an HTS plate loader. Data were analysed with the CBA Software provided by Becton Dickinson which draws standard curves and converts mean fluorescence values into concentration values (pg/ml).
Animals: male C57BL/6J mice, 9 weeks old (Janvier, Le Genest St Isle, France).
Test compounds were dosed orally (p.o.) at 100 mg/kg (vehicle: 0.5% CMC, application volume 10 ml/kg).
Anti-CD3 antibody (BD Bioscience, catalogue number 553057): 200 μl of a 10 μg/ml solution in PBS were applied i.p. (2 μg per mouse).

CCOC(=O)N1Cc2nc(-c3ccc(NC(=O)NC4CC4)cc3F)nc(N3CCOC[C@@H]3C)c2C1 [Example 131, (S)-ethyl 2-(4-(3-cyclopropylureido)-2-fluorophenyl)-4-(3-methylmorpholino)-5H-pyrrolo[3,4-d]pyrimidine-6(7H)-carboxylate]
reduction: IFNγ plasma levels | IL-2 plasma levels | IL-4 plasma levels | TNFα plasma levels
